Laboratory results from patent US5684030A, “2-substituted benzimidazole derivatives” (American Home Products Corporation, priority 1995, dated 1997).

What was measured:
[1] = test system: porcine aortic smooth muscle cells; experiment: Inhibition of serum-stimulated porcine aortic smooth muscle cell proliferation (3H-thymidine); type: cell-based; conditions: Sus scrofa, 24-36 hours at 37° C., assayed at 1, 10, and 100 μM, read-out: Porcine Smooth Muscle Cell Antiproliferation IC50 or % Inhibition at × Concentration, Serum
Method: (§1) The ability of the compounds of the present invention to inhibit smooth muscle cell proliferation was established using isolated porcine aortic smooth muscle cells in a modification of the procedure of Castellot et al. J. Biol. Chem 257(19) 11256 (1982), as follows:
(§2) Fresh porcine aortas, scrupulously cleansed of fatty tissue, are rinsed in sterile phosphate-buffered saline with 2% antibiotic-antimycotic (100×) liquid (10,000 units of penicillin (base), 10,000 μg of streptomycin (base), and 25 μg of amphotericin B/mL utilizing penicillin G (sodium salt), streptomycin sulfate, and amphotericin B as Fungizone® in 0.85% saline, available from Gibco Laboratories, Grand Island Biological Co., Grand Island, N.Y.). The tissue is then digested in 10-15 mL of an enzyme solution containing collagenase type I, 165 U/mL; elastase type III, 15 U/mL; BSA, 2 mg/mL; and soybean trypsin inhibitor, 0.375 mg/mL, followed by incubation at 37° C. under 5% CO2 atmosphere for 10 to 15 minutes. After this treatment, the outer surface adventitia is removed by peeling with a forceps. The aorta is then longitudinally cut and laid open and the endothelial layer is removed by scraping.
(§3) The medial layer of cells is rinsed in the enzyme solution, and placed in a new 100 mm dish with 10 mL of enzyme solution. The medial layer of cells is minced using a fine pair of scissors and digested for 2-3 hours at 37° C. in 30 mL of fresh enzyme solution. After digestion, the medial tissue is homogenized using a sterile Pasteur pipette with a fire polished tip or an Eppendorf pipetter with a 200-1000 μL sterile pipette tip. The suspension is then centrifuged for 10 minutes at 8000 rpm and the pellet is suspended in 4-6 mL of fresh enzyme solution and plated onto 4-6 100 mm flasks with vented caps. The cells are then allowed to grow to confluence and split using 0.25% trypsin. The cells are evaluated for purity and overall quality using antibody to SMC actin.
(§4) The cells are assayed in early passage (generally passage 3-7) at sub-confluent conditions. Cultures are grown in 16 mm (24 well) multi-well culture dishes in media 199 supplemented with 10% fetal bovine serum and 2% antibiotic/antimycotic. At subconfluence, the cells are placed in a defined serum free, lymphocyte medium (AIM-V; Gibco) for 24-48 hours prior to initiating the experimental protocol.
(§5) The standard test procedure is initiated by addition of the test compound, ^3 H-thymidine and serum or a specific growth factor to the serum deprived synchronized cells. Growth factor and serum stimulations are optimized for each cell type. The test compounds are added to each well at 50 fold dilution (20 μL/well) and the plates are incubated for 24-36 hours at 37° C. in 5% CO2 atmosphere. Test compounds are dissolved in 50% ethanol and assayed at 1, 10, and 100 μM. As a control, RG 50872 (Bilder, G. A.; et al., Am. J. Cell Physiol., 1991; 260: C721) is routinely assayed under the conditions of each cell preparation at a concentration of 5 μM.
(§6) At the completion of the experiment, the plates are placed on ice, washed three times with ice cold PBS and incubated in ice cold 10% trichloroacetic acid (TCA) for 30 minutes to remove acid soluble proteins. […]
(§7) Data is quantitated by subjecting the vials to a scintillation counter, in triplicate, for both control and experimental samples. […] Data is expressed as a percent of control from which IC50 s are determined.

[2] = test system: porcine aortic smooth muscle cells; experiment: Inhibition of PDGF-stimulated porcine aortic smooth muscle cell proliferation (3H-thymidine); type: cell-based; conditions: Sus scrofa; stimulated with human recombinant PDGF-AB; 24-36 hours at 37° C.; assayed at 1, 10, and 100 μM; read-out: Porcine Smooth Muscle Cell Antiproliferation IC50 or % Inhibition at × Concentration, PDGF
Method: as §1, §2, §3, §4, §5, §6, §7

[3] = Cytotoxicity, commercial modification of the MTT assay; type: cell-based, porcine; conditions: pig, smooth muscle cells, medium without serum, 24 hours at 37° C., no drug = 100% viable
Method: To distinguish cytotoxicity from the ability of a compound to prevent proliferation, the test compounds were examined using a commercial modification of the MTT assay. Briefly, cells were grown in 24 well plates to 70-80% confluency. The cells were serum deprived for 24-48 hours prior to initiation of the experimental protocol. To insure that the MTT assay monitored toxicity rather than proliferation, the cells were incubated with […] test compound in fresh medium without serum for 24 hours at 37° C. in a humidified CO2 incubator. Upon completion of the compound treatment, MTT indicator dye was added for 4 hours at 37° C. Cells were then solubilized and aliquots from each well were transferred to a 96-well plate for analysis. Absorbance at 570 nm wavelength with a reference wavelength of 630 nm was recorded using an ELISA plate reader. Results are reported as percent viable using no drug (100% viable) and pre-solubilization (0% viable) standards.

Structure (SMILES) | IC50 [1] [µM] | IC50 [2] [µM] | viability at 24 h [3] [%]
Fc1cc2[nH]c(SCc3ccc(Cl)c(Cl)c3)nc2cc1Cl [Example 1, 5(6)-Chloro-2-(3,4-dichlorobenzylsulfanyl)-6(5)-fluoro-1H-benzoimidazole] | 23.3 | 0.06 to 0.61 | 100
O=[N+]([O-])c1ccc2[nH]c(SCc3ccc(Cl)c(Cl)c3)nc2c1 [Example 2, 2-(3,4-Dichlorobenzylsulfanyl)-5-nitro-1H-benzoimidazole] | 10 | 0.12 to 1 | 100
Clc1ccc(CSc2nc3ccccc3[nH]2)cc1Cl [Example 3, 2-(3,4-Dichlorobenzylsulfanyl)-1H-benzoimidazole] | 12.1 | 4.4 | 100
COC(=O)c1ccc(CSc2nc3ccccc3[nH]2)cc1 [Example 4, 4-(1H-Benzoimidazol-2-ylsulfanylmethyl)-benzoic acid methyl ester] | 1.53 | 3.74 | 100
COC(=O)c1ccc(CSc2nc3cc([N+](=O)[O-])ccc3[nH]2)cc1 [Example 5, 4-(5-Nitro-1H-benzoimidazol-2-ylsulfanylmethyl)-benzoic acid methyl ester] | 18.2 | 6.17 | 100
